Data published in PMC9181691, “Characterization of the Biomass Degrading Enzyme GuxA from Acidothermus cellulolyticus” (International Journal of Molecular Sciences, 2022).

Target: T1, GuxA GH12 domain (Acidothermus cellulolyticus, UniProt A0LSH8)
T1 construct: gene Acel_0615; GH12 catalytic domain only (between CBM3 and CBM2 of full-length GuxA), codon optimized, C-terminal hexahistidine tag, pET22b(+), E. coli BL21(DE3), 24 kDa
Test: X-ray crystallography, crystal soak
Assay type: binding
Details: 24 h soak with excess cellobiose powder; crystals from 10% PEG 8K, 0.2 M ZnCl2, 0.1 M Na cacodylate pH 6.5; active site groove

T1 sequence (A0LSH8 entry or part of it): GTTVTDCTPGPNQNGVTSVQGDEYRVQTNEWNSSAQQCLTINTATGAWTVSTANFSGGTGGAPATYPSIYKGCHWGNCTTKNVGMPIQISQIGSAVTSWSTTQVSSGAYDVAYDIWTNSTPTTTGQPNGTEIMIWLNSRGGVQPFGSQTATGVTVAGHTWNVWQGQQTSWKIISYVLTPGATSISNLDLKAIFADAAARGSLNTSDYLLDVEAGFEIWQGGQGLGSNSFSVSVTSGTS

## OC[C@H]1O[C@@H](O[C@H]2[C@H](O)[C@@H](O)C(O)O[C@@H]2CO)[C@H](O)[C@@H](O)[C@@H]1O (stereo partly shown) [cellobiose]
  X-ray crystallography, crystal soak: A cellobiose molecule was found and modeled in the active site groove.
